Source: patent US11254705B2, “Cyclic peptide analogs and conjugates thereof” (Sirenas LLC, priority 2016, dated 2022)

tested on: HCC1954 cells; assay: Inhibition of HCC1954 cell growth (method analogous to BT-474); type: cell-based; settings: Homo sapiens
Protocol: BT-474 human mammary gland ductal carcinoma cells were seeded in a clear polystyrene 96-well microculture plate (Corning® Costar® 96-well flat bottom plate, Cat. #3997) in a total volume of 90 μL/well. After 24 hours of incubation in a humidified incubator at 37° C. with 5% CO2 and 95% air, 10 μL of 10×, serially diluted test agents in growth medium were added to each well (10 pt dose response curve, highest concentration 10 μM of test agent). After 72 hours of culture in a humidified incubator at 37° C., in an atmosphere of 5% CO2 and 95% air, the plated cells and Cell Titer-Glo® (Protnega G7571) reagents were brought to room temperature to equilibrate for 30 minutes. 100 μL of Cell Titer-Glo® reagent was added to each well. The plate was shaken for two minutes and then left to equilibrate for ten minutes. The media/Cell Titer-Glo® reagent was transferred to a white polystyrene 96-well microculture plate (Corning® Costar® 96-well flat bottom plate, Cat. #3917) before reading luminescence on a Tecan GENios microplate reader.
Percent inhibition of cell growth was calculated relative to untreated control wells. The IC50 value for the test agents was determined using Prism 6.05 by curve-fitting of the data using the following four parameter-logistic equation:
[formula] where Top is the maximal % of control absorbance, Bottom is the minimal % of control absorbance at the highest agent concentration, Y is the % of control absorbance, X is the agent concentration, IC50 is the concentration of agent that inhibits cell growth by 50% compared to the control cells, and n is the slope of the curve.
Inhibitory response of test compounds against HCC1954 cells was determined using a method analogous to that used for BT-474 cells.

Q: `C/C=C(\C)[C@H]1OC(=O)[C@@H](C)NC(=O)[C@H]([C@H](C)CC)NC(=O)CN(C)C(=O)[C@@H](Cc2ccccc2)N(C)C(=O)[C@H](C)NC(=O)[C@@H](CC(C)C)OC(=O)/C(C)=C/C[C@H](OC(=O)NCCc2ccc(O)cc2)[C@@H]1C` [Compound 10, (2R,5S,8R,14S,17R,20S,21S,22S,E)-8-benzyl-20-((E)-but-2-en-2-yl)-14-((R)-sec-butyl)-2-isobutyl-5,7,10,17,21,25-hexamethyl-3,6,9,12,15,18,26-heptaoxo-1,19-dioxa-4,7,10,13,16-pentaazacyclohexacos-24-en-22-yl (4-hydroxyphenethyl)carbamate] was tested. Which IC50 did it give?
A: 1.36 nM

Q: `C/C=C(\C)[C@H]1OC(=O)[C@@H](C)NC(=O)[C@H]([C@H](C)CC)NC(=O)CN(C)C(=O)[C@@H](Cc2ccccc2)N(C)C(=O)[C@H](C)NC(=O)[C@@H](CC(C)C)OC(=O)/C(C)=C/C[C@H](OC(=O)NCc2ccc(CO)cc2)[C@@H]1C` [Compound 12, (2R,5S,8R,14S,17R,20S,21S,22S,E)-8-benzyl-20-((E)-but-2-en-2-yl)-14-((R)-sec-butyl)-2-isobutyl-5,7,10,17,21,25-hexamethyl-3,6,9,12,15,18,26-heptaoxo-1,19-dioxa-4,7,10,13,16-pentaazacyclohexacos-24-en-22-yl (4-(hydroxymethyl)benzyl)carbamate] was tested. Which IC50 did it give?
A: 3.29 nM

Q: Which IC50 does the source give for `C/C=C(\C)[C@H]1OC(=O)[C@@H](C)NC(=O)[C@H]([C@H](C)CC)NC(=O)CN(C)C(=O)[C@@H](Cc2ccccc2)N(C)C(=O)[C@H](C)NC(=O)[C@@H](CC(C)C)OC(=O)/C(C)=C/C[C@H](OC(=O)NCCCCCCCCCCCCO)[C@@H]1C` [Compound 13, (2R,5S,8R,14S,17R,20S,21S,22S,E)-8-benzyl-20-((E)-but-2-en-2-yl)-14-((R)-sec-butyl)-2-isobutyl-5,7,10,17,21,25-hexamethyl-3,6,9,12,15,18,26-heptaoxo-1,19-dioxa-4,7,10,13,16-pentaazacyclohexacos-24-en-22-yl (12-hydroxydodecyl)carbamate] here?
A: 18.1 nM

Q: For `C/C=C(\C)[C@H]1OC(=O)[C@@H](C)NC(=O)[C@H]([C@H](C)CC)NC(=O)CN(C)C(=O)[C@@H](Cc2ccc(Cl)cc2)N(C)C(=O)[C@H](C)NC(=O)[C@@H](CC(C)C)OC(=O)/C(C)=C/C[C@H](OC(=O)NCCCCCO)[C@@H]1C` [Compound 16, (2R,5S,8R,14S,17R,20S,21S,22S,E)-20-((E)-but-2-en-2-yl)-14-((R)-sec-butyl)-8-(4-chlorobenzyl)-2-isobutyl-5,7,10,17,21,25-hexamethyl-3,6,9,12,15,18,26-heptaoxo-1,19-dioxa-4,7,10,13,16-pentaazacyclohexacos-24-en-22-yl (5-hydroxypentyl)carbamate], which IC50 is on record?
A: 0.1 nM

Q: For `C/C=C(\C)[C@H]1OC(=O)[C@@H](C)NC(=O)[C@H]([C@H](C)CC)NC(=O)CN(C)C(=O)[C@@H](Cc2ccc(Cl)cc2)N(C)C(=O)[C@H](C)NC(=O)[C@@H](CC(C)C)OC(=O)/C(C)=C/C[C@H](OC(=O)NCCOCCO)[C@@H]1C` [Compound 17, (2R,5S,8R,14S,17R,20S,21S,22S,E)-20-((E)-but-2-en-2-yl)-14-((R)-sec-butyl)-8-(4-chlorobenzyl)-2-isobutyl-5,7,10,17,21,25-hexamethyl-3,6,9,12,15,18,26-heptaoxo-1,19-dioxa-4,7,10,13,16-pentaazacyclohexacos-24-en-22-yl (2-(2-hydroxyethoxy)ethyl)carbamate], which IC50 is on record?
A: 4.15 nM

Q: For `C/C=C(\C)[C@H]1OC(=O)[C@@H](C)NC(=O)[C@H]([C@H](C)CC)NC(=O)CN(C)C(=O)[C@@H](Cc2ccc(Cl)cc2)N(C)C(=O)[C@H](C)NC(=O)[C@@H](CC(C)C)OC(=O)/C(C)=C/C[C@H](OC(=O)NCCc2ccc(O)cc2)[C@@H]1C` [Compound 18, (2R,5S,8R,14S,17R,20S,21S,22S,E)-20-((E)-but-2-en-2-yl)-14-((R)-sec-butyl)-8-(4-chlorobenzyl)-2-isobutyl-5,7,10,17,21,25-hexamethyl-3,6,9,12,15,18,26-heptaoxo-1,19-dioxa-4,7,10,13,16-pentaazacyclohexacos-24-en-22-yl (4-hydroxyphenethyl)carbamate], which IC50 is on record?
A: 2.37 nM
